The structures appear in SMILES notation.

By IC50 is commonly meant the concentration that inhibits the measured activity by half. Low readings indicate greater potency in that assay, high ones weaker potency in that assay.

human A2A receptor (A2AR), sequence (P29274 whole entry): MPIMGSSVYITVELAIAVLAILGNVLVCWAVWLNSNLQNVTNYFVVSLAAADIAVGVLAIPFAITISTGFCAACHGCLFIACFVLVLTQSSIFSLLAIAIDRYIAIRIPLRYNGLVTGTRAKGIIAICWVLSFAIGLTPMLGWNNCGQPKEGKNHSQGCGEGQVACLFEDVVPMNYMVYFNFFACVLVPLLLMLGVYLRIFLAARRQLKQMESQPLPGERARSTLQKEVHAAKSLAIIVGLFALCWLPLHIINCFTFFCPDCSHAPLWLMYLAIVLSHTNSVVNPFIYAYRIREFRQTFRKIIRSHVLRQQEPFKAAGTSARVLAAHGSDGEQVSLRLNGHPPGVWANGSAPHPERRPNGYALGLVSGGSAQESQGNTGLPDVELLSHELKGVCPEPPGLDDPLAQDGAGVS

The target in the experiment is human A2A receptor (A2AR) (Homo sapiens, UniProt P29274). As to the kind of experiment: Luciferase reporter assay (HEK293-A2AR-luc2p/CRE/Hygro cells, 3 nM CGS21680). The experiment is classed as cell-based. The conditions noted are these: 3 nM CGS21680, 5 h incubation. In outline:
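HEK293 cells stably expressing A2AR with a CRE-luc2P reporter were seeded in 1% FBS with 1 U/mL adenosine deaminase. After 18 h, cells got 3 nM CGS21680 plus antagonist at 0.1–10000 nM for 5 h, followed by a luciferase readout. IC50 is relative to the 3 nM CGS21680 signal, set as 100%.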
For orientation: In a reporter assay the amount or activity of a reporter protein is the signal.
`CC(C(=O)N1CCC2(CC1)COC2)(c1ccccc1)n1ncc2c1nc(N)n1nc(-c3ccco3)nc21` (stereo not shown) [Compound B34]: the midpoint of inhibition, the IC50, lay at 14 nM.
Compound `COCCOc1ccc(N2CCN(C(=O)C(C)n3cc4c(nc(N)n5nc(-c6ccco6)nc45)n3)CC2)cc1` (stereo not shown) [Compound C1, 2-(5-amino-2-(furan-2-yl)-8H-pyrazolo[4,3-e][1,2,4]triazolo[1,5-c]pyrimidin-8-yl)-1-(4-(4-(2-methoxyethoxy)phenyl)piperazin-1-yl)propan-1-one] had an IC50 of 28.4 nM.
Regarding `COCCOc1ccc(N2CCN(C(=O)C(C(C)C)n3cc4c(nc(N)n5nc(-c6ccco6)nc45)n3)CC2)cc1` (stereo not shown) [Compound C2, 2-(5-amino-2-(furan-2-yl)-8H-pyrazolo[4,3-e][1,2,4]triazolo[1,5-c]pyrimidin-8-yl)-1-(4-(4-(2-methoxyethoxy)phenyl)piperazin-1-yl)-3-methylbutan-1-one], the 50% inhibitory concentration (IC50) was 648 nM.
In the case of `COCCOc1ccc(N2CCN(C(=O)C(C)(C)n3cc4c(nc(N)n5nc(-c6ccco6)nc45)n3)CC2)cc1` [Compound C3, 2-(5-amino-2-(furan-2-yl)-8H-pyrazolo[4,3-e][1,2,4]triazolo[1,5-c]pyrimidin-8-yl)-1-(4-(4-(2-methoxyethoxy)phenyl)piperazin-1-yl)-2-methylpropan-1-one] it was 1870 nM; in that of `CCC(C(=O)N1CCN(c2ccc(OCCOC)cc2)CC1)n1cc2c(nc(N)n3nc(-c4ccco4)nc23)n1` (stereo not shown) [Compound C4, 2-(5-amino-2-(furan-2-yl)-8H-pyrazolo[4,3-e][1,2,4]triazolo[1,5-c]pyrimidin-8-yl)-1-(4-(4-(2-methoxyethoxy)phenyl)piperazin-1-yl)butan-1-one], 140 nM; in that of `CCCC(C(=O)N1CCN(c2ccc(OCCOC)cc2)CC1)n1cc2c(nc(N)n3nc(-c4ccco4)nc23)n1` (stereo not shown) [Compound C5, 2-(5-amino-2-(furan-2-yl)-8H-pyrazolo[4,3-e][1,2,4]triazolo[1,5-c]pyrimidin-8-yl)-1-(4-(4-(2-methoxyethoxy)phenyl)piperazin-1-yl)pentan-1-one], 132 nM.
With `COCCOCCOc1ccc(N2CCN(C(=O)C(C)(C)n3cc4c(nc(N)n5nc(-c6ccco6)nc45)n3)CC2)cc1` [Compound C6, 2-(5-amino-2-(furan-2-yl)-8H-pyrazolo[4,3-e][1,2,4]triazolo[1,5-c]pyrimidin-8-yl)-1-(4-(4-(2-(2-methoxyethoxy)ethoxy)phenyl)piperazin-1-yl)-2-methylpropan-1-one] the figure was 3180 nM; with `CCCC(C(=O)N1CCN(c2ccc(OCCOCCOC)cc2)CC1)n1cc2c(nc(N)n3nc(-c4ccco4)nc23)n1` (stereo not shown) [Compound C7, 2-(5-amino-2-(furan-2-yl)-8H-pyrazolo[4,3-e][1,2,4]triazolo[1,5-c]pyrimidin-8-yl)-1-(4-(4-(2-(2-methoxyethoxy)ethoxy)phenyl)piperazin-1-yl)pentan-1-one], 186 nM; with `CCC(C(=O)N1CCN(c2ccc(OCCOCCOC)cc2)CC1)n1cc2c(nc(N)n3nc(-c4ccco4)nc23)n1` (stereo not shown) [Compound C8, 2-(5-amino-2-(furan-2-yl)-8H-pyrazolo[4,3-e][1,2,4]triazolo[1,5-c]pyrimidin-8-yl)-1-(4-(4-(2-(2-methoxyethoxy)ethoxy)phenyl)piperazin-1-yl)butan-1-one], 243 nM.
With `COCCOCCOc1ccc(N2CCN(C(=O)C(C)n3cc4c(nc(N)n5nc(-c6ccco6)nc45)n3)CC2)cc1` (stereo not shown) [Compound C9, 2-(5-amino-2-(furan-2-yl)-8H-pyrazolo[4,3-e][1,2,4]triazolo[1,5-c]pyrimidin-8-yl)-1-(4-(4-(2-(2-methoxyethoxy)ethoxy)phenyl)piperazin-1-yl)propan-1-one] the figure was 39.8 nM; with `CCCCC(C(=O)N1CCN(c2ccc(OCCOC)cc2)CC1)n1cc2c(nc(N)n3nc(-c4ccco4)nc23)n1` (stereo not shown) [Compound C10, 2-(5-amino-2-(furan-2-yl)-8H-pyrazolo[4,3-e][1,2,4]triazolo[1,5-c]pyrimidin-8-yl)-1-(4-(4-(2-methoxyethoxy)phenyl)piperazin-1-yl)hexan-1-one], 126 nM; with `CCCCC(C(=O)N1CCN(c2ccc(OCCOCCOC)cc2)CC1)n1cc2c(nc(N)n3nc(-c4ccco4)nc23)n1` (stereo not shown) [Compound C11, 2-(5-amino-2-(furan-2-yl)-8H-pyrazolo[4,3-e][1,2,4]triazolo[1,5-c]pyrimidin-8-yl)-1-(4-(4-(2-(2-methoxyethoxy)ethoxy)phenyl)piperazin-1-yl)hexan-1-one], 118 nM.
For `COCCOCCOc1ccc(N2CCN(C(=O)C(C(C)C)n3cc4c(nc(N)n5nc(-c6ccco6)nc45)n3)CC2)cc1` (stereo not shown) [Compound C12, 2-(5-amino-2-(furan-2-yl)-8H-pyrazolo[4,3-e][1,2,4]triazolo[1,5-c]pyrimidin-8-yl)-1-(4-(4-(2-(2-methoxyethoxy)ethoxy)phenyl)piperazin-1-yl)-3-methylbutan-1-one], the IC50 is 337 nM.
With `CC(C(=O)N1CCN(c2ccc(OCCN)cc2)CC1)n1cc2c(nc(N)n3nc(-c4ccco4)nc23)n1` (stereo not shown) [Compound C13, 2-(5-amino-2-(furan-2-yl)-8H-pyrazolo[4,3-e][1,2,4]triazolo[1,5-c]pyrimidin-8-yl)-1-(4-(4-(2-aminoethoxy)phenyl)piperazin-1-yl)propan-1-one] the figure was 12.7 nM.
With `COCCOc1ccc(N2CCN(C(=O)C(c3ccccc3)n3cc4c(nc(N)n5nc(-c6ccco6)nc45)n3)CC2)cc1` (stereo not shown) [Compound C14, 2-(5-amino-2-(furan-2-yl)-8H-pyrazolo[4,3-e][1,2,4]triazolo[1,5-c]pyrimidin-8-yl)-1-(4-(4-(2-methoxyethoxy)phenyl)piperazin-1-yl)-2-phenylethan-1-one] the figure was 9.5 nM; with `COCCOCCOc1ccc(N2CCN(C(=O)C(c3ccccc3)n3cc4c(nc(N)n5nc(-c6ccco6)nc45)n3)CC2)cc1` (stereo not shown) [Compound C15, 2-(5-amino-2-(furan-2-yl)-8H-pyrazolo[4,3-e][1,2,4]triazolo[1,5-c]pyrimidin-8-yl)-1-(4-(4-(2-(2-methoxyethoxy)ethoxy)phenyl)piperazin-1-yl)-2-phenylethan-1-one], 17 nM; with `COCCOc1ccc(N2CCN(C(=O)C(C3CC3)n3cc4c(nc(N)n5nc(-c6ccco6)nc45)n3)CC2)cc1` (stereo not shown) [Compound C16, 2-(5-amino-2-(furan-2-yl)-8H-pyrazolo[4,3-e][1,2,4]triazolo[1,5-c]pyrimidin-8-yl)-2-cyclopropyl-1-(4-(4-(2-methoxyethoxy)phenyl)piperazin-1-yl)ethan-1-one], 4.9 nM.
As to `COCCOc1ccc(N2CCN(C(=O)C(CC(C)C)n3cc4c(nc(N)n5nc(-c6ccco6)nc45)n3)CC2)cc1` (stereo not shown) [Compound C17, 2-(5-amino-2-(furan-2-yl)-8H-pyrazolo[4,3-e][1,2,4]triazolo[1,5-c]pyrimidin-8-yl)-1-(4-(4-(2-methoxyethoxy)phenyl)piperazin-1-yl)-4-methylpentan-1-one], the IC50 is 88.4 nM.
In the case of `COCCOCCOc1ccc(N2CCN(C(=O)C(CC(C)C)n3cc4c(nc(N)n5nc(-c6ccco6)nc45)n3)CC2)cc1` (stereo not shown) [Compound C18, 2-(5-amino-2-(furan-2-yl)-8H-pyrazolo[4,3-e][1,2,4]triazolo[1,5-c]pyrimidin-8-yl)-1-(4-(4-(2-(2-methoxyethoxy)ethoxy)phenyl)piperazin-1-yl)-4-methylpentan-1-one] it was 90.2 nM.
